Laboratory results from patent US20240173325A1, “METHODS FOR TREATING SPINAL MUSCULAR ATROPHY” (Genentech, Inc., priority 2022, published 2024).
Where two headings read alike, the source gives them in different places.

Experiments:
[1] = system: SMN protein; assay: SMN protein levels in whole blood (Roche Elecsys immunoassay); assay type: in vivo, human
Description: Table 7A and Table 7B presents SMN protein levels in whole blood (measured in ng/mL) in the carrier and the subject as the fetal subject and the neonatal subject of this Example, and reference values are shown in Table 7C below. Table 7B is a continuation of Table 7A from 32.5 weeks gestation prior to administration of risdiplam to the carrier through 43 days post-delivery. SMN protein levels in the whole blood were performed using an immunoassay developed by Roche Diagnostics on the Elecsys® platform.

[2] = system: neonatal subject; assay: Electrophysiological testing (CMAP, MUNE); assay type: in vivo, human
Description: The electrophysiological testing described in this Example can serve as a prognostic biomarker. See Pino (2021) Biomark. Insights. 16:11772719211035643. Electrophysiological studies were performed using standard technique on a Natus UltraPro S100 instrument, with Natus pre-gelled disposable surface electrodes (#901350242) and standard settings for motor nerve conduction studies (LFF 10 Hz and HFF […]). The right ulnar nerve was stimulated at the elbow and recorded from the abductor digiti minimi (ADM) and the peroneal (fibular) nerve was stimulated at the knee and recorded from the tibialis anterior (TA) muscle.
Electrophysiological measurements, such as the compound muscle action potential (CMAP) in millivolts (mV) and motor unit number estimation (MUNE), monitor the functional status of the motor unit pool and are particularly pertinent to motor neuron disorders. See Arnold (2014) Ann. Clin. Transl. Neurol. 1(1):34:44. Cross-sectional studies have shown that CMAP and MUNE correlate with other measures of motor function, clinical severity, and overall function. See Arnold (2014) Ann. Clin. Transl. Neurol. 1(1):34:44.
The CMAP response measures the output of the motor units supplying a particular muscle or group of muscles. The CMAP size is determined by the size and number of depolarized muscle fibers following supramaximal nerve stimulation. Three active electrode placements were used for each nerve tested and the maximal amplitude of the negative peak of the CMAP was used for analysis. As a reference study for the CMAP data provided in Table 6, an ongoing Phase 2, open-label study (NURTURE) aims to evaluate the safety and efficacy of nusinersen in preventing or profoundly attenuating the severity of SMA when initiated prior to the onset of symptoms. See De Vivo (2019) Neuromuscul. Disord. 29(11):842-856. In accordance with this reference study, CMAP amplitudes were mean (SD) 2.7 (1.5) and median (range) 2.3 (1.0-6.7) and NeuroNEXT (typically developing infants) was mean (SD) 5.5±2.0. See Kolb (2016) Ann. Clin. Transl. Neurol. 3(2):132-45.
MUNE is an electrophysiological method that can measure the number of motor units supplying a particular muscle. It should be appreciated that the “N” of MUNE (ulnar N) in Table 6 refers to “nerve.” For pre-symptomatic SMA neonates, MUNE (ulnar N) ranges from 70-270. See Bromberg (2002) Muscle Nerve. 25(3):445-7; and Swoboda (2005) Ann Neurol. 57(5):704-12. In this Example, the MUNE was performed on the right ulnar nerve using the multipoint technique. A minimum of ten unique single motor unit potentials were captured with the mean value used for the calculation of the MUNE. […] See Swoboda, et al. (2005) Ann. Neurol. 57:704-712; and Bromberg (2002) Muscle Nerve 25:445-447.

[3] = system: SMN protein; conditions: cited from earlier work
[4] = system: FMO1 and FMO3, CYPs 1A1, 2J2, 3A4, and 3A7; conditions: cited from earlier work

Cc1cn2nc(-c3cc(=O)n4cc(N5CCNC6(CC6)C5)ccc4n3)cc(C)c2n1 [risdiplam, 7-(4,7-diazaspiro[2.5]octan-7-yl)-2-(2,8-dimethylimidazo[1,2-b]pyridazin-6-yl)-4H-pyrido[1,2-a]pyrimidin-4-one]
SMN protein level in whole blood relative to reference amounts ([1]; at d0, versus reference study (FIG. 2)): about two | SMN protein level in whole blood ([1]; carrier, 32.5 WG (pre-risdiplam)): 7.7 ng/mL | SMN protein level in whole blood ([1]; carrier, 36 WG): 6.3 ng/mL | SMN protein level in whole blood ([1]; carrier, 38 WG): 6.0 ng/mL | SMN protein level in whole blood ([1]; carrier, birth 38.5 WG): 4.0 ng/mL | SMN protein level in whole blood ([1]; carrier, d 20 post birth): 5.0 ng/mL | SMN protein level in whole blood ([1]; carrier, d 29 post birth): 5.1 ng/mL | SMN protein level in whole blood ([1]; carrier, d 43 post birth): 4.6 ng/mL | Decline of SMN protein level ([1]; carrier, from prenatal treatment until delivery): 48% | Increase of SMN protein level ([1]; carrier, postpartum period): 15-28% | Increase of SMN protein level ([1]; neonatal subject, at d43 following drug initiation on d8): 36% | SMN protein level in whole blood ([1]; neonatal subject, birth 38.5 WG (cord)): 9.4 ng/mL | SMN protein level in whole blood ([1]; neonatal subject, d 8, no drug since birth): 4.5 ng/mL | SMN protein level in whole blood ([1]; neonatal subject, d 43, oral 0.15 mg/kg/day from d8): 6.1 ng/mL | MUNE (Ulnar N) ([2]; 1 week): 167 | Peroneal N CMAP ([2]; 1 week): 2.7 mV | Ulnar N CMAP ([2]; 1 week): 4.6 mV | Ulnar nerve CMAP relative to NURTURE median 2.3 mV ([2]; 1 week): 2 fold | MUNE (Ulnar N) ([2]; 6 weeks): 313 | Peroneal N CMAP ([2]; 6 weeks): 3.5 mV | Ulnar N CMAP ([2]; 6 weeks): 5.8 mV | Ulnar nerve CMAP relative to NURTURE median 2.3 mV ([2]; 6 weeks): 2.5 fold | MUNE (Ulnar N) ([2]; 18 weeks): 296 | Ulnar N CMAP ([2]; 18 weeks): 7.1 mV | SMN protein level in whole blood, reference values (median, range) ([3]; high dose 0.2 mg/kg/day, 4 W risdiplam): 5.9 (2.8-8.8) ng/mL | SMN protein level in whole blood, reference values (median, range) ([3]; high dose 0.2 mg/kg/day, 12 M risdiplam): 5.7 (2.7-8.6) ng/mL | SMN protein level in whole blood, reference values (median, range) ([3]; high dose 0.2 mg/kg/day, T0): T0: 2.5 (1.1-6.4) ng/mL | SMN protein level in whole blood, reference values (median, range) ([3]; low dose 0.08 mg/kg/day, 4 W risdiplam): 4.5 (2.6-5.6) ng/mL | SMN protein level in whole blood, reference values (median, range) ([3]; low dose 0.08 mg/kg/day, 12 M risdiplam): 3.0 (1.8-5.5) ng/mL | SMN protein level in whole blood, reference values (median, range) ([3]; low dose 0.08 mg/kg/day, T0): T0: 1.3 (0.6-4.8) ng/mL | Activity of metabolites [4]: inactive | Metabolizing enzymes [4]: primarily metabolized by flavin monooxygenase 1 and 3 (FMO1 and FMO3) and also by CYPs 1A1, 2J2, 3A4, and 3A7
